The values below are quoted from earlier work in US10695318B2, “Methods and compositions for improving cognitive function” (MARS, Incorporated, priority 2006, dated 2020).

Structures are written as SMILES.

The subject of this data set is global CBF. The conditions noted are these: inhalation of 5% C02 as vasodilative stimulus.

As for `O=C=O` [C02], the “global CBF increases” value is given as “approximately 87%”.
